Experimental data: PubChem BioAssay AID248 (DTP/NCI, 2004)
“And” between values parts separate entries of the source, which are not always exact repeats. Identical values can stand only once. Toxic doses and inconclusive results are not listed. Rule as the data show it: active = T/C of 150% or more; inactive = T/C below 125%.

System: L1210 leukemia ip in BDF1 mice, survival T/C
Experiment: NCI In Vivo Anticancer Drug Screen. Data for tumor model L1210 Leukemia (intraperitoneal) in B6D2F1 (BDF1) mice
Details: endpoint: mean survival time, higher = longer survival
In short: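 Value reflects the ratio of survival in compound-treated mice to survival in vehicle-treated controls, with both groups carrying the same transplanted tumor.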

[1] = dose: 100.0 mg/kg/injection, schedule: Q04DX002 (ip), vehicle: saline with Tween-80
[2] = dose: 200.0 mg/kg/injection, schedule: Q04DX002 (ip), vehicle: saline with Tween-80
[3] = dose: 25.0 mg/kg/injection, schedule: Q04DX003 (ip), vehicle: saline with Tween-80
[4] = dose: 50.0 mg/kg/injection, schedule: Q04DX003 (ip), vehicle: saline with Tween-80
[5] = dose: 100.0 mg/kg/injection, schedule: Q04DX003 (ip), vehicle: Klucel (hydroxypropylcellulose) (HPC)
[6] = dose: 12.5 mg/kg/injection, schedule: Q01DX009 (ip), vehicle: saline
[7] = dose: 25.0 mg/kg/injection, schedule: Q01DX009 (ip), vehicle: saline
[8] = dose: 50.0 mg/kg/injection, schedule: Q01DX009 (ip), vehicle: saline
[9] = dose: 100.0 mg/kg/injection, schedule: Q01DX001 (ip), vehicle: saline
[10] = dose: 25.0 mg/kg/injection, schedule: Q04DX003 (ip), vehicle: saline
[11] = dose: 50.0 mg/kg/injection, schedule: Q04DX003 (ip), vehicle: saline
[12] = dose: 100.0 mg/kg/injection, schedule: Q04DX003 (ip), vehicle: saline
[13] = dose: 100.0 mg/kg/injection, schedule: Q01DX009 (ip), vehicle: Klucel (hydroxypropylcellulose) (HPC)
[14] = dose: 200.0 mg/kg/injection, schedule: Q01DX009 (ip), vehicle: Klucel (hydroxypropylcellulose) (HPC)
[15] = dose: 200.0 mg/kg/injection, schedule: Q04DX003 (ip), vehicle: Klucel (hydroxypropylcellulose) (HPC)
[16] = dose: 400.0 mg/kg/injection, schedule: Q01DX009 (ip), vehicle: Klucel (hydroxypropylcellulose) (HPC)
[17] = dose: 400.0 mg/kg/injection, schedule: Q04DX003 (ip), vehicle: Klucel (hydroxypropylcellulose) (HPC)
[18] = dose: 100.0 mg/kg/injection, schedule: Q04DX002 (ip), vehicle: Klucel (hydroxypropylcellulose) (HPC)
[19] = dose: 200.0 mg/kg/injection, schedule: Q04DX002 (ip), vehicle: Klucel (hydroxypropylcellulose) (HPC)
[20] = dose: 400.0 mg/kg/injection, schedule: Q04DX002 (ip), vehicle: Klucel (hydroxypropylcellulose) (HPC)
[21] = dose: 100.0 mg/kg/injection, schedule: Q01DX009 (ip), vehicle: saline with Tween-80
[22] = dose: 200.0 mg/kg/injection, schedule: Q01DX009 (ip), vehicle: saline with Tween-80
[23] = dose: 50.0 mg/kg/injection, schedule: Q01DX009 (ip), vehicle: saline with Tween-80
[24] = dose: 400.0 mg/kg/injection, schedule: Q04DX002 (ip), vehicle: saline with Tween-80

Measured: T/C

O=C(O)C(CO)NS(=O)(=O)Cc1ccccc1 (stereo not given)
inactive: dose: 100.0 mg/kg/injection, schedule: Q01DX001 (ip), vehicle: other 104 % of control | dose: 200.0 mg/kg/injection, schedule: Q01DX001 (ip), vehicle: other 96 % of control | dose: 400.0 mg/kg/injection, schedule: Q01DX001 (ip), vehicle: other 96 % of control

c1ccc(C(c2ccccc2)[Si](c2ccccc2)(c2ccccc2)c2ccccc2)cc1
inactive: [1] 90 % of control | [2] 97 % of control

c1cc2c(c(OCC3=NCCN3)c1)CCC2
inactive: dose: 10.0 mg/kg/injection, schedule: Q01DX009 (ip), vehicle: Klucel (hydroxypropylcellulose) (HPC) 107 % of control | dose: 20.0 mg/kg/injection, schedule: Q01DX009 (ip), vehicle: Klucel (hydroxypropylcellulose) (HPC) 105 % of control | dose: 40.0 mg/kg/injection, schedule: Q01DX009 (ip), vehicle: Klucel (hydroxypropylcellulose) (HPC) 93 % of control

Cn1c(=S)sc2ccccc21
inactive: [3] 97 % of control | [4] 97 % of control | [5] 107 % of control

c1ccc(-c2ccn(C3CCCCC3)c2-c2ccccc2)cc1
inactive: dose: 100.0 mg/kg/injection, schedule: Q01DX001 (ip), vehicle: saline with Tween-80 87 % of control | dose: 200.0 mg/kg/injection, schedule: Q01DX001 (ip), vehicle: saline with Tween-80 91 % of control | dose: 400.0 mg/kg/injection, schedule: Q01DX001 (ip), vehicle: saline with Tween-80 92 % of control

NNC(=O)c1ccccc1
inactive: [6] 100 % of control | [7] 97 % of control | dose: 50.0 mg/kg/injection, schedule: Q01DX001 (ip), vehicle: saline 90 % of control | [8] 111 % of control | [4] 97 % of control | [9] 108 % of control | dose: 100.0 mg/kg/injection, schedule: Q01DX009 (ip), vehicle: saline 100 % of control

CCCCNC(C)C(=O)c1ccccc1 (stereo not given)
inactive: dose: 12.5 mg/kg/injection, schedule: Q04DX003 (ip), vehicle: saline 100 % of control | [7] 101 % of control | [10] 90 % of control | [8] 101 % of control | [11] 100 % of control | [12] 94 % of control

COc1cc(OC)c(NC(=O)c2cc3ccccc3cc2O)cc1Cl
inactive: [13] 96 % of control | [5] 101 % of control | [14] 101 % of control | [15] 101 % of control | [16] 96 % of control | [17] 111 % of control

COc1cccc(CBr)c1-c1c(CBr)cccc1OC
inactive: [18] 94 % of control | [19] 110 % of control | [20] 94 % of control

COc1cccc(-c2cc3c(OC)ccc(OC)c3[nH]2)c1
inactive: [18] 99 % of control | [19] 89 % of control | [20] 99 % of control

O=C1C(Br)=C(Br)c2ccccc21
inactive: dose: 50.0 mg/kg/injection, schedule: Q01DX001 (ip), vehicle: carboxymethylcellulose (CMC) 100 % of control | dose: 100.0 mg/kg/injection, schedule: Q01DX001 (ip), vehicle: carboxymethylcellulose (CMC) 99 % of control

O=C1c2ccccc2C(=O)N1CNc1cccc(NCN2C(=O)c3ccccc3C2=O)n1
inactive: [21] 92 % of control | [22] 91 % of control | dose: 400.0 mg/kg/injection, schedule: Q01DX009 (ip), vehicle: saline with Tween-80 93 % of control

Cc1ccc(NC(=S)N2CCOCC2)cc1C
inactive: [13] 94 % of control | [14] 100 % of control | [16] 94 % of control

COC(=O)C1C2CCc3cc(OC)ccc3C2CCC1(C)C(=O)O (stereo not given)
inactive: [5] 95 % of control | [15] 95 % of control | [17] 91 % of control

CC1=C2CC(C)(C)/C=C\C(=O)/C(C)=C\C3=C[C@H](C)C[C@]3(O2)C1=O
inactive: dose: 11.0 mg/kg/injection, schedule: Q01DX009 (ip), vehicle: saline 112 % of control | dose: 16.0 mg/kg/injection, schedule: Q01DX009 (ip), vehicle: saline 106 % of control | dose: 24.0 mg/kg/injection, schedule: Q01DX009 (ip), vehicle: saline 116 % of control

CCOC(=O)COCC(C)=O
inactive: [23] 92 % of control | [21] 96 % of control | [22] 96 % of control

CNNCc1ccccc1
inactive: [9] 117 % of control | dose: 200.0 mg/kg/injection, schedule: Q01DX001 (ip), vehicle: saline 115 % of control

O=C1OC(c2ccccc2)(C2(c3ccccc3)C=C(c3ccccc3)C(=O)O2)C=C1c1ccccc1 (stereo not given)
inactive: dose: 100.0 mg/kg/injection, schedule: Q01DX001 (ip), vehicle: Klucel (hydroxypropylcellulose) (HPC) 100 % of control | [5] 94 % of control | dose: 200.0 mg/kg/injection, schedule: Q01DX001 (ip), vehicle: Klucel (hydroxypropylcellulose) (HPC) 97 % of control | [15] 103 % of control | dose: 400.0 mg/kg/injection, schedule: Q01DX001 (ip), vehicle: Klucel (hydroxypropylcellulose) (HPC) 100 % of control | [17] 91 % of control

CN1CCN(P(=O)(c2ccccc2)N2CCN(C)CC2)CC1
inactive: [1] 98 % of control | [2] 98 % of control | [24] 98 % of control

CSc1nc(N=[N+]=[N-])n(C)n1
inactive: [1] 95 % of control | [2] 95 % of control | [24] 92 % of control

S=C(Nc1ccc(Cl)c(Cl)c1)SCc1ccc(Cl)cc1
inactive: [10] 104 % of control | [11] 101 % of control | [12] 104 % of control

Cc1ccc(S(=O)(=O)NC(=O)NCc2ccco2)cc1
inactive: [5] 94 % of control | [15] 86 % of control | [17] 89 % of control

O=S1(=O)CC(Cl)C(Cl)C1 (stereo not given)
inactive: dose: 1.56 mg/kg/injection, schedule: Q01DX009 (ip), vehicle: saline 90 % of control | dose: 3.12 mg/kg/injection, schedule: Q01DX009 (ip), vehicle: saline 91 % of control | dose: 6.25 mg/kg/injection, schedule: Q01DX009 (ip), vehicle: saline 91 % of control | dose: 12.5 mg/kg/injection, schedule: Q01DX001 (ip), vehicle: other 94 % of control | dose: 12.5 mg/kg/injection, schedule: Q01DX001 (ip), vehicle: saline with Tween-80 98 % of control | dose: 12.5 mg/kg/injection, schedule: Q01DX009 (ip), vehicle: other 90 % of control | [6] 98 % of control | dose: 12.5 mg/kg/injection, schedule: Q04DX003 (ip), vehicle: Klucel (hydroxypropylcellulose) (HPC) 106 % of control | dose: 25.0 mg/kg/injection, schedule: Q01DX001 (ip), vehicle: other 95 % of control | dose: 25.0 mg/kg/injection, schedule: Q01DX001 (ip), vehicle: saline with Tween-80 100 % of control | dose: 25.0 mg/kg/injection, schedule: Q04DX003 (ip), vehicle: Klucel (hydroxypropylcellulose) (HPC) 108 % of control | [3] 101 % of control | dose: 50.0 mg/kg/injection, schedule: Q01DX001 (ip), vehicle: other 95 % of control | dose: 50.0 mg/kg/injection, schedule: Q04DX003 (ip), vehicle: Klucel (hydroxypropylcellulose) (HPC) 92 % of control | [4] 90 % of control

Cc1c(Cl)cccc1NC(=O)NC(=O)c1ccccc1
inactive: [23] 101 % of control | [21] 108 % of control | [22] 97 % of control

CCCCC(CCN1CCCC1)(CNC(=O)CN(CC)CC)c1cccc2ccccc12 (stereo not given)
inactive: [7] 94 % of control | dose: 25.0 mg/kg/injection, schedule: Q04DX002 (ip), vehicle: Klucel (hydroxypropylcellulose) (HPC) 103 % of control | [8] 102 % of control | dose: 50.0 mg/kg/injection, schedule: Q04DX002 (ip), vehicle: Klucel (hydroxypropylcellulose) (HPC) 100 % of control | [18] 107 % of control

O=C(O)c1cc(S(=O)(=O)F)c(Cl)cc1Cl
inactive: dose: 25.0 mg/kg/injection, schedule: Q01DX009 (ip), vehicle: saline with Tween-80 102 % of control | [23] 103 % of control | [21] 100 % of control and 101 % of control

O=C(Nc1ccccc1C(F)(F)F)OCCOc1ccc(-c2ccccc2)cc1
inactive: [13] 93 % of control | [14] 91 % of control | [16] 91 % of control
